Legend:
[1] = system: eosinophils in human whole blood; assay: Human whole blood eosinophil shape change assay (PGD2-induced); assay type: cell-based; conditions: for IC50: Eosinophil, 10 nM PGD2, human whole blood, read-out: IC50 for effect on 10 nM PGD2-induced eosinophil shape change in human whole blood
Method: Compounds 1-3 were assayed for their effect on PGD2 induced eosinophil shape change and were compared with Comparator Compounds A, B and D.
Compounds (1 μl, 200× final concentration) were added directly to 200 μl whole blood, mixed well and incubated for 15 min, 37° C., 5% CO2. After this time, cell shape was fixed by addition of 300 μl Cytofix™ buffer (BD Biosciences), 15 min on ice. 10 ml RBC lysis buffer was added to the fixed cells, incubated 5 min, at room temperature and centrifuged, 300×g for 5 min. Supernatant (containing lysed red cells) was removed and the lysis step was repeated. Leukocytes were resuspended in 250 μl RPMI/10% FCS and shape change analysed by FACS. Eosinophils were gated out based on their autofluorescence and 2000 eosinophil events were counted per sample. Data were analysed in triplicate.

Microsomal stability = assay type: in vitro ADME, human; conditions: for Mean Parent remaining (%): 1 x 10^-6 M test compound, human liver microsomes 0.3 mg/ml, mean of two experiments; for unmetabolised in human liver microsomes: text states
Method: The percentage of the test compound remaining in the sample after 1 hour was measured in order to determine the rate of metabolism of test compound. The results are shown in Table 3, which gives the results for two experiments and the mean value obtained.

[2] = In vivo pharmacokinetic profile in the dog; conditions: plasma
CRTH2 receptor = CRTH2 receptor (Homo sapiens (Human), UniProt Q9Y5Y4); assay: [3H]PGD2 radioligand binding assay on CHO/CRTH2 cell membranes; conditions: for Ki: [3H]PGD2, CHO/CRTH2 membranes
Chain of CRTH2 receptor (Q9Y5Y4 whole entry): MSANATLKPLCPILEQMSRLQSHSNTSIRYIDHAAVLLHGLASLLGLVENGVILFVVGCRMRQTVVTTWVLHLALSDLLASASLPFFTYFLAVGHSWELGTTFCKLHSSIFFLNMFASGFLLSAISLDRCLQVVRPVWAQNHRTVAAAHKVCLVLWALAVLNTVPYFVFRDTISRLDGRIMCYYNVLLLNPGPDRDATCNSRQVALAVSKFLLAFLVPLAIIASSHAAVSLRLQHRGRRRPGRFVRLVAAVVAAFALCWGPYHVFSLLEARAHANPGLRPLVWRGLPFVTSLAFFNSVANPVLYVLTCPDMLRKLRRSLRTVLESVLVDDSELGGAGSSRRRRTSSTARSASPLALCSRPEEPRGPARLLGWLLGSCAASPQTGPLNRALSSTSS
Method: Chinese Hamster Ovary cells were transfected with CRTH2 or DP receptors (CHO/CRTH2 and CHO/DP) and were maintained in culture in a humidified atmosphere at 37° C. (5% CO2) in Minimum Essential Medium (MEM) supplemented with 10% foetal bovine serum, 2 mM glutamine, and 1 mg ml^−1 active G418. The cells were passaged every 2-3 days. For radioligand binding assay, cells were prepared in triple-layer flasks or in 175 cm^2 square flasks (for membrane preparation).
Membranes were prepared either from CHO/CRTH2 and CHO/DP cells, or from platelets (as a source of TP receptors). CHO cells grown to confluency were washed with PBS and detached using a Versene solution (15 ml per flask). When the cells were grown in 175 cm^2 square flask, they were collected by scrapping in PBS. The cell suspensions were centrifuged (1,700 rpm, 10 min, 4° C.) and resuspended in 15 ml of buffer (1×HBSS, supplemented with 10 mM HEPES, pH 7.3). Cell suspensions were then homogenised using an Ultra Turrax at setting 4-6 for 20 s. The homogenate was centrifuged at 1,700 rpm for 10 min and the supernatant was collected and centrifuged at 20,000 rpm for 1 h at 4° C. The resulting pellet was resuspended in buffer and stored at −80° C. in aliquots of […] The protein concentration was determined by the method of Bradford (1976), using bovine serum albumin as standard. The platelets were washed by centrifugation at 600×g for 10 min and resuspended in ice-cold assay buffer (10 mM Tris-HCl, pH 7.4, 5 mM Glucose, 120 mM NaCl, 10 μM indomethacin) and directly centrifuged at 20,000 rpm for 30 min at 4° C. The resulting pellet was treated as described above.
[^3H]PGD2 (160 Ci/mmol) binding experiments were performed on membranes prepared as described above. Assays were performed in a final volume of 100 μl of buffer (1×HBSS/HEPES 10 mM, pH 7.3). Cell membranes (15 μg) were preincubated at room temperature with varying concentration of competing ligand for 15 min. [^3H]PGD2 was then added and the incubation continued for a further one hour at room temperature. The reaction was terminated by the addition of 200 μl ice-cold assay buffer to each well, followed by rapid filtration through Whatman GF/B glass fibre filters using a Unifilter Cell harvester (PerkinElmer Life Sciences) and six washes of 300 μl of ice-cold buffer. The Unifilter plates were dried at room temperature for at least 1 h and the radioactivity retained on the filters was determined on a Beta Trilux counter (PerkinElmer Life Sciences), following addition of 40 μl of Optiphase Hi-Safe 3 (Wallac) liquid scintillation. Non specific binding was defined in the presence of 10 μM unlabelled PGD2. Assays were performed in duplicate.

SMILES	IC50 [1]	Mean Parent remaining (%) (Microsomal stability)	stability in human microsomes (in words) (Microsomal stability; human microsomes)	unmetabolised in human liver microsomes (Microsomal stability)	half-life [2]	Ki (CRTH2 receptor)	half-life ([2]; oral)	binding to the CRTH2 receptor (in words) (CRTH2 receptor)	CRTH2 antagonist potency under physiological conditions (in words) ([1]; eosinophil shape change test, whole blood)
Cc1c(Cc2cccn2S(=O)(=O)c2ccccc2)c2cc(F)ccc2n1CC(=O)O [Compound D, [3-(1-Benzenesulfonyl-1H-pyrrol-2-ylmethyl)-5-fluoro-2-methyl-indol-1-yl]-acetic acid]	8 nM	24%	low stability	24%	–	–	–	–	–
Cc1c(Cc2cccnc2S(=O)(=O)c2ccc(F)cc2)c2cc(F)ccc2n1CC(=O)O [Compound 2, [5-Fluoro-3-({2-[(4-fluorobenzene)sulfonyl]pyridin-3-yl}methyl)-2-methylindol-1-yl]-acetic acid]	2.5 nM	98%	–	98%	5 h	–	–	–	–
Cc1c(Cc2ccc(S(C)(=O)=O)cc2)c2cc(F)ccc2n1CC(=O)O [Compound A, [3-(4-Methylsulfonyl-benzyl)-5-fluoro-2-methyl-indol-1-yl]-acetic acid]	8 nM	–	–	–	–	7 nM	1 h	–	–
Cc1c(Cc2cccnc2S(=O)(=O)c2ccccc2)c2cc(F)ccc2n1CC(=O)O [Compound 1, (3-{[2-(Benzenesulfonyl)pyridin-3-yl]methyl}-5-fluoro-2-methylindol-1-yl)-acetic acid]	9 nM	96%	–	96%	–	2 nM	3 h	–	–
Cc1c(Cc2cccnc2)c2cc(F)ccc2n1CC(=O)O [Compound E]	–	–	–	–	–	258 nM	–	bind only very weakly	–
Cc1c(Cc2ccncc2S(=O)(=O)c2ccccc2)c2cc(F)ccc2n1CC(=O)O [Compound B, [3-(3-Benzenesulfonyl-pyridin-4ylmethyl)-5-fluoro-2-methyl-indol-1-yl]-acetic acid]	34 nM	69%	–	69%	–	1 nM	–	–	not a particularly potent CRTH2 antagonist
Cc1c(Cc2cccnc2S(=O)(=O)c2ccc(Cl)cc2)c2cc(F)ccc2n1CC(=O)O [Compound 3, [3-({2-[(4-Chlorobenzene)sulfonyl]pyridin-3-yl}methyl)-5-fluoro-2-methylindol-1-yl]-acetic acid]	10 nM	–	–	–	–	–	–	–	–
Cc1c(Cc2ncccc2S(=O)(=O)c2ccccc2)c2cc(F)ccc2n1CC(=O)O [Compound C, [3-(3-Benzenesulfonyl-pyridin-2-ylmethyl)-5-fluoro-2-methyl-indol-1-yl]-acetic acid]	–	90%	–	90%	–	979 nM	–	bind only very weakly	–

Source: patent US8536158B2, “Compounds having CRTH2 antagonist activity” (Atopix Therapeutics Limited, priority 2008, dated 2013)
